pIC50: −log10 of the molar value. Values after ≈ are worked out from the molar mass of the structure shown. Read-outs that look alike come from different tables or passages of the source.
How the values were obtained:
PCTAIRE1/CycY = PCTAIRE1/CycY (Homo sapiens, UniProt Q00536); assay: Kinase profiling; format: biochemical; conditions: 10 semi-logarithmic dilutions from 50 μM, singlicate
ERK1 = ERK1 (Homo sapiens, UniProt P27361); assay: Kinase profiling; format: biochemical; conditions: 10 semi-logarithmic dilutions from 50 μM, singlicate
CDK3/CycC = CDK3/CycC (Homo sapiens, UniProt Q00526); assay: Kinase profiling; format: biochemical; conditions: 10 semi-logarithmic dilutions from 50 μM, singlicate
DYRK1A = DYRK1A (Homo sapiens, UniProt Q13627); assay: Kinase profiling; format: biochemical; conditions: 10 semi-logarithmic dilutions from 50 μM, singlicate
CDK7/CycH/MAT1 = CDK7/CycH/MAT1 (Homo sapiens, UniProt P50613); assay: Kinase profiling; format: biochemical; conditions: 10 semi-logarithmic dilutions from 50 μM, singlicate
CDK5/p25NCK = CDK5/p25NCK (Homo sapiens, UniProt Q00535); assay: Kinase profiling; format: biochemical; conditions: 10 semi-logarithmic dilutions from 50 μM, singlicate
CDC7/DBF4 = CDC7/DBF4 (Homo sapiens, UniProt O00311); assay: Kinase profiling; format: biochemical
PIM1 = PIM1 (Homo sapiens, UniProt P11309); assay: Kinase profiling; format: biochemical; conditions: 10 semi-logarithmic dilutions from 50 μM, singlicate
CDK19/CycC = CDK19/CycC (Homo sapiens, UniProt Q9BWU1); assay: Kinase profiling; format: biochemical; conditions: 10 semi-logarithmic dilutions from 50 μM, singlicate
CDK5/p35NCK = CDK5/p35NCK (Homo sapiens, UniProt Q00535); assay: Kinase profiling; format: biochemical; conditions: 10 semi-logarithmic dilutions from 50 μM, singlicate
CDK12wt/CycK = CDK12wt/CycK (Homo sapiens, UniProt Q9NYV4); assay: Kinase profiling; format: biochemical; conditions: 10 semi-logarithmic dilutions from 50 μM, singlicate
[1] = tested on: MCF10 non-transformed mammary epithelial cell line; assay: Proliferation assay: determination of GI50; format: cell-based, human; conditions: Table 3, 48 h, n = 2 independent experiments
Procedure: (§1) The following human tumor cell lines, all Retinoblastoma (Rb)-proficient, were used in this study: MDA-MB231 (breast cancer), MDA-MB453 (breast cancer), U87MG (glioblastoma) and H460 (lung cancer). MDA-MB468 (breast cancer) and SW1783 (glioblastoma) Rb-deficient cells were also included in the study, as well as the MCF10A non-transformed mammary epithelial cell line. Tumor cell lines were maintained in DMEM or RPMI-1640 medium, depending on the cell line, supplemented with 10% FBS. MCF10A cells were grown in complete mammary epithelial growth medium (MEGM, Lonza). Cell lines were authenticated by short tandem repeat (STR) loci profiling with the GenePrint® 10 System (Promega).
(§2) All human cancer cell lines (Table 2) were obtained from the American Type Culture Collection, and were maintained in DMEM (Hyclone) or RPMI-1640 medium (Sigma) supplemented with 10% fetal bovine serum (Sigma). Non-transformed MCF10 cell line was maintained in MEGM Mammary Epithelial Cell Growth Medium (Lonza). Immortalized mouse embryonic fibroblasts (MEFs) were maintained in DMEM with 10% fetal bovine serum.
(§3) 48 h later cells were fixed with PFA 4% for 15 minutes, stained with 10 μg/ml Hoechst 33342 (Molecular Probes, Thermo Fisher) for 30 minutes and washed twice with PBS. Cells were imaged in a high content screening system (Opera Phoenix™, Perkin Elmer) using a 20× dry objective (30 fields/well). Cell counts were determined by the Opera software (Perkin Elmer) and data were further processed with SPSS software. GI50 was calculated by estimating the absolute IC50 using dose-response inhibition tool in Prism6 (Graphpad Software Inc.).

[2] = tested on: U87MG glioblastoma cell line; assay: Proliferation assay: determination of GI50; format: cell-based, human
Procedure: as §1, §2, §3

[3] = tested on: H460 lung carcinoma cell line; assay: Proliferation assay: determination of GI50; format: cell-based, human; conditions: Table 3, 48 h, n = 2 independent experiments
Procedure: as §1, §2, §3

[4] = tested on: MDA-MB-231 breast carcinoma cell line; assay: Proliferation assay: determination of GI50; format: cell-based, human
Procedure: as §1, §2, §3

HIPK2 = HIPK2 (Homo sapiens, UniProt Q9H2X6); assay: Kinase profiling; format: biochemical
DYRK2 = molecular target: T1, DYRK2 (Homo sapiens, UniProt Q92630); assay: Kinase profiling; format: biochemical
T1 sequence (Q92630 1-601): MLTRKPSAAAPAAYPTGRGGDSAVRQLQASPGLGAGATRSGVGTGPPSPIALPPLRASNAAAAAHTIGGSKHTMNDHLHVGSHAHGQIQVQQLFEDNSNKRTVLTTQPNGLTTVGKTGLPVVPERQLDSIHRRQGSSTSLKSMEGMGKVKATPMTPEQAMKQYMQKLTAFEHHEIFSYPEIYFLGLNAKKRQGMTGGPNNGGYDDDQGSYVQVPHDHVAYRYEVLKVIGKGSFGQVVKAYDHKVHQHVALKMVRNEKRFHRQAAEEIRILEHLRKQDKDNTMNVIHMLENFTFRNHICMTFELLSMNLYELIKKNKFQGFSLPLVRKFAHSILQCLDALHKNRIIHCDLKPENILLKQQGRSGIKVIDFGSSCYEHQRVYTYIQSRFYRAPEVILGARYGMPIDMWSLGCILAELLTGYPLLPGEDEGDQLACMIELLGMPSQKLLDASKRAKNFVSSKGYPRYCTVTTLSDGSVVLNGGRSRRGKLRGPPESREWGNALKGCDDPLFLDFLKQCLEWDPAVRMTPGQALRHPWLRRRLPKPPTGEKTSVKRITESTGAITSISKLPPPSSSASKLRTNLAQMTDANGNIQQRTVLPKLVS

CDK3/CycE1 = CDK3/CycE1 (Homo sapiens, UniProt Q00526); assay: Kinase profiling; format: biochemical; conditions: 10 semi-logarithmic dilutions from 50 μM, singlicate
CDK8/CycC = CDK8/CycC (Homo sapiens, UniProt P49336); assay: Kinase profiling; format: biochemical; conditions: 10 semi-logarithmic dilutions from 50 μM, singlicate
AKT1 aa1-480 = molecular target: T2, AKT1 aa1-480 (Homo sapiens, UniProt P31749); assay: Kinase profiling; format: biochemical; conditions: 10 semi-logarithmic dilutions from 50 μM, singlicate
T2 construct: AKT1 aa1-480

[5] = tested on: MDA-MB-231 human breast cancer cells; assay: Cell cycle analysis (DNA content, flow cytometry); format: cell-based; conditions: GI50 concentration; FIG. 1
Procedure: FIG. 1 depicts DNA content profiles of MDA-MB-231 human breast cancer cells treated with subject compounds or commercial CDK inhibitors, showing the percentage of cells at the different cell cycle phases after 48 hours of the treatments indicated. (n=6 technical replicates).
Cells were collected by trypsinization, washed with PBS and fixed with cold 70% ethanol. Cells were treated with 250 μg/ml RNase (Qiagen) for 30 minutes at 37° C. and stained with 10 μg/ml Propidium Iodide (Sigma). Cell cycle was analyzed by flow cytometry using a LSR Fortessa Analyzer. Cell cycle profiles were generated and analyzed with FlowJo software.
Cells were collected by tripsinization at several times after treatment with the indicated compounds and, then, fixed with cold 70% Ethanol. DNA content was determined by staining with propidium iodide (10 μg/ml, Sigma Aldrich). Data acquisition was performed with a LSR Fortessa analyzer (BD Biosciences) and analysed using FlowJo software.

[6] = not told
[7] = Metabolic stability in hepatocytes; format: in vitro ADME; conditions: human, 60-90 min test
Caco-2 cells = assay: Permeability Caco-2 cells; format: in vitro ADME
[8] = Permeability Caco-2 cells; format: in vitro ADME; conditions: human, Caco-2
[9] = Metabolic stability in microsomes; format: in vitro ADME; conditions: mouse, 60-90 min test
[10] = Metabolic stability in microsomes; format: in vitro ADME; conditions: human, 60-90 min test
[11] = Thermodynamic solubility (pH 7.4); format: physicochemical; conditions: pH 7.4, aqueous buffer, thermodynamic from solid
[12] = Metabolic stability in hepatocytes; format: in vitro ADME; conditions: mouse, 60-90 min test
[13] = tested on: SW1783 glioblastoma cell line (pRB mutant); assay: Proliferation assay: determination of GI50; format: cell-based; conditions: Homo sapiens, Table 4, n = 4, read-out: Growth inhibition GI50, Glioblastoma pRB Mutant SW1783
Procedure: as §1, §2, §3

[14] = tested on: MDA-MB-468 breast carcinoma cell line (pRB mutant); assay: Proliferation assay: determination of GI50; format: cell-based; conditions: Homo sapiens, Table 4, n = 2, read-out: Growth inhibition GI50, Breast cancer pRB Mutant MDA-MB-468
Procedure: as §1, §2, §3

Cdk4/6_KO MEFs = assay: Cell growth in Cdk-deficient MEFs; format: cell-based, mouse; conditions: relative cell count day 6 versus day 3; FIG. 4
Procedure: (§4) Cdk-deficient MEFs were plated in 10-cm dish in triplicate (100,000/well) and treated with the selected compounds at the indicated concentration, based on GI50 previously determined in the MDA-MB-231 cell line. Cells were counted in an optical microscope 3 and 6 days after treatment to estimate the relative cell growth in each condition.
(§5) To further investigate the relative functional dependence of the subject compounds on CDK2 versus CDK4 or CDK6, the specific effects of PS004, PS006 and PS009 were tested on CDK-deficient mouse embryonic fibroblasts (MEFs) obtained from Cdk2 knock out, Cdk4; Cdk6-double knock out and Cdk2; Cdk4; Cdk6-triple knock out mouse models.

Cdk2/4/6_KO MEFs = assay: Cell growth in Cdk-deficient MEFs; format: cell-based, mouse; conditions: relative cell count day 6 versus day 3; FIG. 4
Procedure: as §4, §5

[15] = Kinetic solubility (pH 7.4); format: physicochemical; conditions: pH 7.4, aqueous buffer, kinetic from dmso stock
[16] = 10 semi-logarithmic dilutions from 50 μM, singlicate, read-out: IC50 CDC7/DBF4
[17] = Homo sapiens, U-87 MG, Table 3, 48 h, n = 3 independent experiments, read-out: GI50 U87MG
[18] = Homo sapiens, MDA-MB-231, Table 3, 48 h, n = 3 independent experiments, read-out: GI50 MDA-MB231
[19] = 10 semi-logarithmic dilutions from 50 μM, singlicate, read-out: IC50 HIPK2
[20] = 10 semi-logarithmic dilutions from 50 μM, singlicate, read-out: IC50 DYRK2

Sequence of CDC7/DBF4 (O00311 whole entry): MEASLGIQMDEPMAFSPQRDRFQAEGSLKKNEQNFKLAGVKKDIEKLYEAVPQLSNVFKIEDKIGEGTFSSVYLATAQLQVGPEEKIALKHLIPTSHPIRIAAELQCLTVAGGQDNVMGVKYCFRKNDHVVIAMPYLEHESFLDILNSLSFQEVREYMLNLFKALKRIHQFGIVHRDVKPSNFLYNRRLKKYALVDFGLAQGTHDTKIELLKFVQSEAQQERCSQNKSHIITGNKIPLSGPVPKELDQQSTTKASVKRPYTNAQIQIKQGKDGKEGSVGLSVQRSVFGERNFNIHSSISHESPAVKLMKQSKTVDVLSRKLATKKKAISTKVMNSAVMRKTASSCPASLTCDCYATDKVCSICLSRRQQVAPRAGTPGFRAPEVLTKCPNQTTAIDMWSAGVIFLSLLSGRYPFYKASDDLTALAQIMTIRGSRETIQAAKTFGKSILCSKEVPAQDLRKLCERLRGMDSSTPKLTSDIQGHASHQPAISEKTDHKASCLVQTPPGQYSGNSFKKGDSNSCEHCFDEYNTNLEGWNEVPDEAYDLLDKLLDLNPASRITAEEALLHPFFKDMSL
Sequence of CDC7/DBF4 (Q9UBU7 whole entry partner): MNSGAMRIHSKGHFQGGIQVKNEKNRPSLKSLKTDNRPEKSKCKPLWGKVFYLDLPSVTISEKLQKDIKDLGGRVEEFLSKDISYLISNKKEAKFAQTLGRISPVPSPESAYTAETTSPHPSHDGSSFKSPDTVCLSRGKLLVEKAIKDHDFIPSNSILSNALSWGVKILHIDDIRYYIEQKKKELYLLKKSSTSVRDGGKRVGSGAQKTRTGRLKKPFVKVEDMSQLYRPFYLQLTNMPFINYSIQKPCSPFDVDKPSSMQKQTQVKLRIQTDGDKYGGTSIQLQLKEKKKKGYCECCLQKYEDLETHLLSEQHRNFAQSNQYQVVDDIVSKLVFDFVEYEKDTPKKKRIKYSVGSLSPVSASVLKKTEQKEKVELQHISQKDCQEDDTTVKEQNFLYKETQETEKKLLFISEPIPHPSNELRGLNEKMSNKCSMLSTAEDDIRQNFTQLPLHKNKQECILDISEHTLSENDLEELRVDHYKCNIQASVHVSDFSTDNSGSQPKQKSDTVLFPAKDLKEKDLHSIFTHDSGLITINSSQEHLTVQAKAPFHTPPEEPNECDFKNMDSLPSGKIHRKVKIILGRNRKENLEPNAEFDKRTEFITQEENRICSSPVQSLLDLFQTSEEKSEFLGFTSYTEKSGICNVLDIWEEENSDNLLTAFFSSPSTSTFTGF
Sequence of CDK19/CycC (Q9BWU1 whole entry): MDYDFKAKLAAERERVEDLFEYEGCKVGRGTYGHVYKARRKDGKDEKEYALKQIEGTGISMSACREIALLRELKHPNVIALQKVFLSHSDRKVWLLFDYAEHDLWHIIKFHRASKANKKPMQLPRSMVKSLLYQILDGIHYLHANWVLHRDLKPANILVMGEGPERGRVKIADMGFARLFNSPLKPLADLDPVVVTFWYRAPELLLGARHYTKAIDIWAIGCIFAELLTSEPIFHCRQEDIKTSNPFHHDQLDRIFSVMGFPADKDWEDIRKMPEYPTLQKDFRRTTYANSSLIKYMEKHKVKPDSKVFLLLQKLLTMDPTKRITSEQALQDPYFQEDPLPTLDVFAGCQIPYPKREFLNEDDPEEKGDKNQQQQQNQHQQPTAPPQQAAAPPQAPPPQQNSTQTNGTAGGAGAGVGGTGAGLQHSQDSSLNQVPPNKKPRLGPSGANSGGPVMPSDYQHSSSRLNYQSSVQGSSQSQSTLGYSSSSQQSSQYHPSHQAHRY
Sequence of CDK19/CycC (P24863 whole entry partner): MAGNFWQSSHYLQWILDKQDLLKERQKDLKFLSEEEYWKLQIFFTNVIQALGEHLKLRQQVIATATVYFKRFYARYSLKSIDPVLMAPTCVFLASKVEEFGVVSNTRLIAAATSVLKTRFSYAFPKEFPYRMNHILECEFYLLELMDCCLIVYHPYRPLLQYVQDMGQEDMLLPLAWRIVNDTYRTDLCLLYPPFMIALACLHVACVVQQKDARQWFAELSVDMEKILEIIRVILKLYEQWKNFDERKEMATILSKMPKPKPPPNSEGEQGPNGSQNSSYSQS
Sequence of HIPK2 (Q9H2X6 whole entry): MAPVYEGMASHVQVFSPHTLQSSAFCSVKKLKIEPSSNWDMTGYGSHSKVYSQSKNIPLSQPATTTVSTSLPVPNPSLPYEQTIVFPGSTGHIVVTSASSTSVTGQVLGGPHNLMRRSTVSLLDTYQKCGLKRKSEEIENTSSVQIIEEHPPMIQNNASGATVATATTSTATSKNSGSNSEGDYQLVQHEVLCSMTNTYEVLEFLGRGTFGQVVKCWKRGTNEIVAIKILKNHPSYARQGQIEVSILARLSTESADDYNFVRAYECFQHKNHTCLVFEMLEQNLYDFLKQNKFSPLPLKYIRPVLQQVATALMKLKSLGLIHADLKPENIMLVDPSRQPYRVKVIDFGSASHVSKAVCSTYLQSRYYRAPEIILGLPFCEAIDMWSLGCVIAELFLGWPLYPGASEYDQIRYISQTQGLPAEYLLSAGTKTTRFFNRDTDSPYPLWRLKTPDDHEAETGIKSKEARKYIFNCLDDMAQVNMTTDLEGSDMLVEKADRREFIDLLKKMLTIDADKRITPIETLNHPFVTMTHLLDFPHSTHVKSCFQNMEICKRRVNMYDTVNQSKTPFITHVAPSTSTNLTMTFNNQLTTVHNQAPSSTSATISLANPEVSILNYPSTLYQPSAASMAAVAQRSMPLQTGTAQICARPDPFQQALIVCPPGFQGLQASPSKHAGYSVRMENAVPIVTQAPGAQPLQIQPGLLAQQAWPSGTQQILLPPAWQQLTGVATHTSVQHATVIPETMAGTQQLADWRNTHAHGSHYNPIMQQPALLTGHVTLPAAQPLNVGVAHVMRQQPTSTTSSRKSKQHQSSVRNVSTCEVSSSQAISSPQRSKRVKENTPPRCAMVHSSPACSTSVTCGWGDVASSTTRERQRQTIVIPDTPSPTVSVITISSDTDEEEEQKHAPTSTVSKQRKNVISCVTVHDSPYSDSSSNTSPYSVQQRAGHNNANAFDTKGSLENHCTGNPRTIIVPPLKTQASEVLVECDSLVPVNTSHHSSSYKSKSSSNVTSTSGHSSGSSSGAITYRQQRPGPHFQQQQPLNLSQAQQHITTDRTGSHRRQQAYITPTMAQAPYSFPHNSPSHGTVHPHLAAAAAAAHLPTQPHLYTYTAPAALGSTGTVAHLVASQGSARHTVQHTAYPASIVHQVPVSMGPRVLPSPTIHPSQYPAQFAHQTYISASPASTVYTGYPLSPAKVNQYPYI
T2 sequence (P31749 whole entry, the tested form may be a part): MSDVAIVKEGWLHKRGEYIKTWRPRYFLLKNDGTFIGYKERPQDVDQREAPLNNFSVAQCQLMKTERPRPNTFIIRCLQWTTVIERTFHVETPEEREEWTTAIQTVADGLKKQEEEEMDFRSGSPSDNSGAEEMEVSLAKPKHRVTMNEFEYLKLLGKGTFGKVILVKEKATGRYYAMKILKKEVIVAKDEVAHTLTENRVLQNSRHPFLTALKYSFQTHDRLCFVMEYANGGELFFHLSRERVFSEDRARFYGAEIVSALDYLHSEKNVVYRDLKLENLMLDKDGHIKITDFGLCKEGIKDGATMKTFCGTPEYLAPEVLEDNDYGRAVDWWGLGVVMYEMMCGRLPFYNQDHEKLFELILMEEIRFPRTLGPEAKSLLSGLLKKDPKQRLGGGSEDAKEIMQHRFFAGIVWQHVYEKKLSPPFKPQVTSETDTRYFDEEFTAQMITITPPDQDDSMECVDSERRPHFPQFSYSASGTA
Sequence of CDK8/CycC (P49336 whole entry, the tested form may be a part): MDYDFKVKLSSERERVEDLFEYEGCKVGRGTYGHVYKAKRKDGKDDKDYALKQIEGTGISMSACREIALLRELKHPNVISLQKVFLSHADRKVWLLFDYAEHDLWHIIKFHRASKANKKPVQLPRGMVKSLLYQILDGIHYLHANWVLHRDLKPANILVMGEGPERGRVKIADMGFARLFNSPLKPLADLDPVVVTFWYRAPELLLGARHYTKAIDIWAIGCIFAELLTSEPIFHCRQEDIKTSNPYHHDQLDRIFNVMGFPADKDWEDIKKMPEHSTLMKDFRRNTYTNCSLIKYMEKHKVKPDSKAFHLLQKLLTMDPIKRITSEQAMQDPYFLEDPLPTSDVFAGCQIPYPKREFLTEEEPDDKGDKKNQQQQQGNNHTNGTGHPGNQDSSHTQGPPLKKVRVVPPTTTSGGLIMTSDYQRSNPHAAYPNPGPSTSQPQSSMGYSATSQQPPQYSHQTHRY
Sequence of CDK8/CycC (P24863 whole entry partner, the tested form may be a part): as the sequence (P24863 whole entry partner) above
Sequence of ERK1 (P27361 whole entry): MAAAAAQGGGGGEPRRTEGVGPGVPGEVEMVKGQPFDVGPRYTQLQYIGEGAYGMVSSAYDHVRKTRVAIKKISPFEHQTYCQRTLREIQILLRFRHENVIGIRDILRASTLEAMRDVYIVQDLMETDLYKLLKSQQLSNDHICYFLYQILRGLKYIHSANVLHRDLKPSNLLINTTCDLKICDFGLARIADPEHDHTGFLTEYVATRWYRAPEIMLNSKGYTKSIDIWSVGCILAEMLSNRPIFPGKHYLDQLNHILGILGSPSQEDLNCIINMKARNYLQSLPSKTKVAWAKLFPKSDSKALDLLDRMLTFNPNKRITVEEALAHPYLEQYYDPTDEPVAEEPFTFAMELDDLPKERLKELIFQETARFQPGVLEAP
Sequence of CDK3/CycC (Q00526 whole entry): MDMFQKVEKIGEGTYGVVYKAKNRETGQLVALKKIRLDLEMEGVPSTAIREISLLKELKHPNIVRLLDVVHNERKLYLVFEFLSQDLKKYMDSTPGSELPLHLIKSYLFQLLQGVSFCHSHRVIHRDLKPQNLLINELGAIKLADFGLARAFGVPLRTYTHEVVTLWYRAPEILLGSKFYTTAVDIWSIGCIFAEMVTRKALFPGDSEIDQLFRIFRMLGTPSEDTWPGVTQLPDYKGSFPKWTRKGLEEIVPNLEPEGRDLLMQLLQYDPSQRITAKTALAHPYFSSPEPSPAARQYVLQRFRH
Sequence of CDK3/CycC (P24863 whole entry partner): as the sequence (P24863 whole entry partner) above

Row | SMILES | pIC50 (ERK1) | pIC50 (CDK3/CycC) | pIC50 (CDC7/DBF4; [16]) | pIC50 (CDK19/CycC) | pIC50 (CDK12wt/CycK) | GI50 ([1]; Homo sapiens, MCF10) [nM] | GI50 [2, 17] [nM] | GI50 ([3]; Homo sapiens, NCI-H460) [nM] | GI50 [4, 18] [nM] | pIC50 (HIPK2; [19]) | pIC50 (DYRK2; [20]) | pIC50 (CDK3/CycE1) | pIC50 (CDK8/CycC) | pIC50 (AKT1 aa1-480) | also measured
1 | CN(C)C(=O)c1cc2cnc(Nc3ccc(N4CCNCC4)cn3)nc2n1C1CCCC1 [Ribociclib, reference compound] | < 4.30 | 6.49 | 6.50 | 6.44 | 6.30 | 540 | 260 | 1470 | 700 | 7.40 | 7.86 | 5.78 | 5.69 | < 4.30 | pIC50 (PCTAIRE1/CycY): 6.23; pIC50 (DYRK1A): 7.84; pIC50 (CDK7/CycH/MAT1): 5.13; pIC50 (CDK5/p25NCK): 5.66; pIC50 (PIM1): 7.61; pIC50 (CDK5/p35NCK): 6.19; cell cycle arrest by DNA content [5]: robust G0/G1-phase arrest
2 | CCN1CCN(Cc2ccc(Nc3ncc(F)c(-c4cc(F)c5nc(C)n(C(C)C)c5c4)n3)nc2)CC1 [Abemaciclib, reference compound] | < 4.30 | 4.30 | < 4.30 | < 4.30 | 4.68 | 1240 | 470 | 3100 | 1500 | 4.33 | – | < 4.30 | < 4.30 | < 4.30 | –
3 | O=C1NC(=NCc2cccs2)S/C1=C\c1ccc2ncccc2c1 [RO-3306, reference compound] | – | – | – | – | – | – | – | – | – | – | – | – | – | – | GI50 [1]: 2800 nM; GI50 ([2]; Table 3, 48 h, n = 3 independent experiments, read-out: GI50 U87MG): > 50000 nM; GI50 [3]: 25600 nM; GI50 ([4]; Table 3, 48 h, n = 3 independent experiments, read-out: GI50 MDA-MB231): 3200 nM
4 | CC[C@H](CO)Nc1nc(NCc2ccccc2)c2ncn(C(C)C)c2n1 [Roscovitine, reference compound] | – | – | – | – | – | – | – | – | – | – | – | – | – | – | pIC50 (CDC7/DBF4): 4.38; pIC50 (HIPK2): < 4.30; pIC50 (DYRK2): 4.42
5 | CC(=O)c1c(C)c2cnc(Nc3ccc(N4CCNCC4)cn3)nc2n(C2CCCC2)c1=O [Palbociclib, reference compound] | – | – | – | 4.93 | – | 470 | 430 | 1320 | 740 | – | 5.16 | – | – | – | Summary: permeability [6]: Low; hepatocyte CLint ([7]; read-out: Metabolic stability, Human hepatocytes: Clearance): < 6.4 µL/min/1e6 cells; half-life ([7]; read-out: Metabolic stability, Human hepatocytes: t1/2): > 3.61 h; Permeability Caco-2 cells: Permeability, grade in words (Caco-2 cells): (low); Papp [8]: 0.4 ×10⁻⁶ cm/s; GI50 ([2]; Homo sapiens, U-87 MG, Table 4, n = 4, read-out: Growth inhibition GI50, Glioblastoma pRB Wild-Type U87MG): 5700 nM; GI50 ([4]; Homo sapiens, MDA-MB-231, Table 4, n = 4, read-out: Growth inhibition GI50, Breast cancer pRB Wild-Type MDA-MB-231): 1700 nM; microsomal CLint ([9]; read-out: Metabolic stability, Mouse microsomes: Clearance): 18.3 µL/min/mg; half-life ([9]; read-out: Metabolic stability, Mouse microsomes: t1/2): 1.26 h; microsomal CLint ([10]; read-out: Metabolic stability, Human microsomes: Clearance): 23.6 µL/min/mg; half-life ([10]; read-out: Metabolic stability, Human microsomes: t1/2): 0.98 h; solubility thermodynamic [11]: 2.32 µM (≈ 1.04 µg/mL); hepatocyte CLint ([12]; read-out: Metabolic stability, Mouse heptocytes: Clearance): 14.4 µL/min/1e6 cells; half-life ([12]; read-out: Metabolic stability, Mouse heptocytes: t1/2): 1.61 h; GI50 [13]: 19900 nM; GI50 [14]: 9500 nM; cell proliferation of Cdk4; Cdk6-double knock out MEFs (Cdk4/6_KO MEFs): did not show activity; cell proliferation of Cdk2; Cdk4; Cdk6-triple knock out MEFs (Cdk2/4/6_KO MEFs): did not show activity; solubility kinetic [15]: 19.9 µM (≈ 8.92 µg/mL)

— US20230042936A1, “PYRIDO[2,3-d]PYRIMIDIN-7(8H)-ONES AS CDK INHIBITORS” (PROSENESTAR LLC, priority 2020, published 2023)
